We go through 26 compounds from PubChem BioAssay AID330 (DTP/NCI, 2004).

For the assay, the system named is P388 leukemia ip, CD2F1 mice, survival T/C. Kind of assay: NCI In Vivo Anticancer Drug Screen. Data for tumor model P388 Leukemia (intraperitoneal) in CD2F1 (CDF1) mice. The note with it: endpoint: median survival time, higher = longer survival. The essentials:
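Mice carrying the transplanted tumor received test compound or vehicle. Survival was recorded in each group, and the value is the treated-group measurement divided by that of the vehicle-treated control group.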

The mark [1] stands for this setting: dose: 50.0 mg/kg/injection, schedule: Q01DX009 (ip), vehicle: Klucel (hydroxypropylcellulose) (HPC).
Setting [2] is: dose: 100.0 mg/kg/injection, schedule: Q01DX009 (ip), vehicle: Klucel (hydroxypropylcellulose) (HPC).
The mark [3] stands for this setting: dose: 200.0 mg/kg/injection, schedule: Q01DX009 (ip), vehicle: Klucel (hydroxypropylcellulose) (HPC).
Setting [4] is: dose: 25.0 mg/kg/injection, schedule: Q01DX009 (ip), vehicle: saline with Tween-80.
Setting [5] is: dose: 50.0 mg/kg/injection, schedule: Q01DX009 (ip), vehicle: saline with Tween-80.
Where [6] appears, read: dose: 50.0 mg/kg/injection, schedule: Q01DX009 (ip), vehicle: saline.
Where [7] appears, read: dose: 6.25 mg/kg/injection, schedule: Q01DX009 (ip), vehicle: Klucel (hydroxypropylcellulose) (HPC).
The mark [8] stands for this setting: dose: 60.0 mg/kg/injection, schedule: Q01DX005 (ip), vehicle: Klucel (hydroxypropylcellulose) (HPC).
Setting [9] is: dose: 120.0 mg/kg/injection, schedule: Q01DX005 (ip), vehicle: Klucel (hydroxypropylcellulose) (HPC).
Setting [10] is: dose: 240.0 mg/kg/injection, schedule: Q01DX005 (ip), vehicle: Klucel (hydroxypropylcellulose) (HPC).
Setting [11] is: dose: 50.0 mg/kg/injection, schedule: Q01DX005 (ip), vehicle: saline with Tween-80.
[12] abbreviates: dose: 50.0 mg/kg/injection, schedule: Q01DX005 (ip), vehicle: Klucel (hydroxypropylcellulose) (HPC).
Where [13] appears, read: dose: 100.0 mg/kg/injection, schedule: Q01DX005 (ip), vehicle: Klucel (hydroxypropylcellulose) (HPC).
Setting [14] is: dose: 200.0 mg/kg/injection, schedule: Q01DX005 (ip), vehicle: Klucel (hydroxypropylcellulose) (HPC).
Setting [15] is: dose: 100.0 mg/kg/injection, schedule: Q01DX009 (ip), vehicle: saline.
The mark [16] stands for this setting: dose: 200.0 mg/kg/injection, schedule: Q01DX009 (ip), vehicle: saline.
Setting [17] is: dose: 400.0 mg/kg/injection, schedule: Q01DX009 (ip), vehicle: saline.
Where [18] appears, read: dose: 100.0 mg/kg/injection, schedule: Q01DX009 (ip), vehicle: saline with Tween-80.
Setting [19] is: dose: 200.0 mg/kg/injection, schedule: Q01DX009 (ip), vehicle: saline with Tween-80.
The mark [20] stands for this setting: dose: 12.5 mg/kg/injection, schedule: Q01DX009 (ip), vehicle: Klucel (hydroxypropylcellulose) (HPC).
Setting [21] is: dose: 25.0 mg/kg/injection, schedule: Q01DX009 (ip), vehicle: Klucel (hydroxypropylcellulose) (HPC).
Setting [22] is: dose: 100.0 mg/kg/injection, schedule: Q01DX001 (ip), vehicle: Klucel (hydroxypropylcellulose) (HPC).

Where “and” joins values, the source holds several entries; their conditions need not be identical. Equal entries are not always repeated. Toxic doses and inconclusive results are not listed.

Take `COc1ccc(/C=N\S(=O)(=O)c2ccc(OC)cc2)cc1`: the T/C under setting [1] is 111 % of control, the T/C under setting [2] was 102 % of control and the T/C under setting [3] is 95 % of control.
Turning to `O=[Se]([O][Sn]([O][Se](=O)c1ccccc1)([O][Se](=O)c1ccccc1)[O][Se](=O)c1ccccc1)c1ccccc1` (centres undefined), the T/C (dose: 12.5 mg/kg/injection, schedule: Q01DX009 (ip), vehicle: saline with Tween-80) was 98 % of control; the T/C under setting [4] is 103 % of control; the T/C under setting [5] is 110 % of control and 118 % of control.
For `CCc1ccc(C2(C)C(=O)c3ccccc3C2=O)cc1`, the T/C by setting is: (dose: 100.0 mg/kg/injection, schedule: Q04DX002 (ip), vehicle: saline) 101 % of control; (dose: 200.0 mg/kg/injection, schedule: Q04DX002 (ip), vehicle: saline) 100 % of control; (dose: 400.0 mg/kg/injection, schedule: Q04DX002 (ip), vehicle: saline) 104 % of control.
As to `CCOc1ccc(Nc2ncnc3nc[nH]c23)cc1CN(CCCl)CCCl`, the T/C is 154 % of control (dose: 0.88 mg/kg/injection, schedule: Q01DX009 (ip), vehicle: saline); 159 % of control (dose: 2.0 mg/kg/injection, schedule: Q01DX009 (ip), vehicle: saline); 122 % of control (dose: 3.0 mg/kg/injection, schedule: Q01DX009 (ip), vehicle: saline).
Turning to `CC(CCCSC(=N)N)SC(=N)N` (centres undefined), the T/C runs as follows: (dose: 12.5 mg/kg/injection, schedule: Q01DX009 (ip), vehicle: saline) 105 % of control; (dose: 25.0 mg/kg/injection, schedule: Q01DX009 (ip), vehicle: saline) 98 % of control; under setting [6], 104 % of control.
For `CCCCCCCCCC(C)CC(=O)NCCCN(C)CCCCN(C)C` (centres undefined), the T/C runs as follows: (dose: 0.78 mg/kg/injection, schedule: Q01DX009 (ip), vehicle: Klucel (hydroxypropylcellulose) (HPC)) 107 % of control; (dose: 1.56 mg/kg/injection, schedule: Q01DX009 (ip), vehicle: Klucel (hydroxypropylcellulose) (HPC)) 105 % of control; (dose: 3.13 mg/kg/injection, schedule: Q01DX009 (ip), vehicle: Klucel (hydroxypropylcellulose) (HPC)) 112 % of control; under setting [7], 87 % of control.
In the case of `CN(C)CN1C(=O)S/C(=C2\C(=O)N(CN(C)C)c3ccccc32)C1=O`, the T/C is 118 % of control (dose: 30.0 mg/kg/injection, schedule: Q01DX005 (ip), vehicle: Klucel (hydroxypropylcellulose) (HPC)); 120 % of control and 121 % of control under setting [8]; 113 % of control under setting [9]; 120 % of control under setting [10].
As to `CCn1c2ccccc2c2cc(NC(N)=S)ccc21`, the T/C runs as follows: (dose: 12.5 mg/kg/injection, schedule: Q01DX005 (ip), vehicle: saline with Tween-80) 100 % of control; (dose: 25.0 mg/kg/injection, schedule: Q01DX005 (ip), vehicle: saline with Tween-80) 102 % of control; under setting [11], 100 % of control and 98 % of control.
Consider `CN=C(N)N/N=C/c1ccc(-c2ccccc2)cc1`, for which the T/C by setting is: (dose: 25.0 mg/kg/injection, schedule: Q04DX002 (ip), vehicle: saline) 105 % of control; (dose: 50.0 mg/kg/injection, schedule: Q04DX002 (ip), vehicle: saline) 111 % of control.
Regarding `CC(NC(=O)OCc1ccccc1)C(=O)NC(Cc1c[nH]c2ccccc12)C(=O)O` (centres undefined), the T/C is 99 % of control under setting [12], 97 % of control under setting [13] and 95 % of control under setting [14].
Regarding `C1CNNCCNN1`, the T/C runs as follows: under setting [6], 112 % of control; under setting [15], 106 % of control and 108 % of control and 90 % of control; under setting [16], 109 % of control and 115 % of control and 89 % of control; under setting [17], 112 % of control and 120 % of control and 93 % of control; (dose: 800.0 mg/kg/injection, schedule: Q01DX009 (ip), vehicle: saline) 121 % of control.
Regarding `CCC#CC(=O)OC`, the T/C was 94 % of control under setting [5], 103 % of control under setting [18] and 114 % of control under setting [19].
Consider `O=S(=O)(c1ccc(Cl)cc1)N(Cl)Cl`, for which the T/C is 107 % of control under setting [7]; 100 % of control under setting [20]; 101 % of control and 116 % of control under setting [21]; 105 % of control under setting [1].
For `Nc1ncn[nH]1`, the T/C was 99 % of control and 105 % of control under setting [6]; 98 % of control and 97 % of control under setting [15]; 100 % of control and 106 % of control under setting [16]; 99 % of control under setting [17].
Turning to `COc1ccc(CSc2ncnc3nc[nH]c23)cc1`, the T/C under setting [4] was 91 % of control and the T/C under setting [5] is 87 % of control.
With `CC1(C)[C@@H]2CC[C@]3(C)[C@H]4CC[C@]5(C)[C@@H](O)CC[C@H]5[C@@H]4CC[C@]3(O2)[C@@H]1O`, the T/C is 91 % of control under setting [11] and 91 % of control (dose: 100.0 mg/kg/injection, schedule: Q01DX005 (ip), vehicle: saline with Tween-80).
In the case of `CCCCCCCCCCCC(O)CCCC(O)CC(O)CC(O)CC1CC=CC(=O)O1` (centres undefined), the T/C is 106 % of control under setting [20], 103 % of control under setting [21] and 112 % of control under setting [1].
`CCN(CC)c1ccc2cc(-c3nc4ccccc4n3C)c(=O)oc2c1`: under “dose: 200.0 mg/kg/injection, schedule: Q04DX003 (ip), vehicle: Klucel (hydroxypropylcellulose) (HPC)”, the T/C was 183 % of control.
For the compound `C/C(CCl)=N/NC1=NC(C)(CCC2(C)N=C(N/N=C(/C)CCl)SP2(=O)NC23CC4CC(CC(C4)C2)C3)P(=O)(NC23CC4CC(CC(C4)C2)C3)S1` (centres undefined), the T/C (dose: 60.0 mg/kg/injection, schedule: Q01DX005 (ip), vehicle: saline with Tween-80) was 105 % of control; the T/C (dose: 120.0 mg/kg/injection, schedule: Q01DX005 (ip), vehicle: saline with Tween-80) was 100 % of control; the T/C (dose: 240.0 mg/kg/injection, schedule: Q01DX005 (ip), vehicle: saline with Tween-80) is 91 % of control.
For `Clc1cc(-c2csc(Cl)c2)cs1`, the T/C is 97 % of control under setting [4]; 103 % of control and 97 % of control under setting [5]; 109 % of control under setting [18]; 96 % of control under setting [19].
Consider `Sc1cc2c(c3ccccc13)Nc1ccccc1S2`, for which the T/C is 92 % of control under setting [1], 97 % of control under setting [2] and 97 % of control under setting [3].
For `CCOC(=O)C1C(c2cc(OC)c(OC)c(OC)c2)c2cc3c(cc2OC1(C)N1CCCC1)OCO3` (centres undefined), the T/C is, setting by setting: under setting [8], 97 % of control; under setting [9], 96 % of control; under setting [10], 96 % of control.
Regarding `Cc1cn(CCCCCOc2c3ccoc3cc3oc(=O)ccc23)c(=O)[nH]c1=O`, the T/C runs as follows: under setting [22], 92 % of control; (dose: 200.0 mg/kg/injection, schedule: Q01DX001 (ip), vehicle: Klucel (hydroxypropylcellulose) (HPC)) 90 % of control; (dose: 400.0 mg/kg/injection, schedule: Q01DX001 (ip), vehicle: Klucel (hydroxypropylcellulose) (HPC)) 87 % of control.
Consider `Nc1ccnc(Sc2ncccc2[N+](=O)[O-])n1`, for which the T/C was 100 % of control under setting [12], 100 % of control under setting [13] and 93 % of control under setting [14].
On to `CCS1=C(C(C)=O)C(=O)O[C@H](C)C1` (some centres undefined), for which the T/C reads like this: (dose: 50.0 mg/kg/injection, schedule: Q01DX005 (ip), vehicle: saline) 100 % of control; (dose: 100.0 mg/kg/injection, schedule: Q01DX005 (ip), vehicle: saline) 98 % of control; (dose: 200.0 mg/kg/injection, schedule: Q01DX005 (ip), vehicle: saline) 115 % of control.
As to `O=C(Nc1ccc(N=C=S)cc1)c1cc(Br)cc(Br)c1O`, the T/C is, setting by setting: (dose: 50.0 mg/kg/injection, schedule: Q01DX001 (ip), vehicle: Klucel (hydroxypropylcellulose) (HPC)) 101 % of control; under setting [22], 99 % of control.
